Results as given in patent publication EP4512427A1, “ANTIBODY-DRUG CONJUGATES BASED ON MOLECULAR GLUE DEGRADERS AND USES THEREOF” (Mablink Bioscience, priority 2023, dated 2025).

Test system: CycK
Test: CycK protein quantification by Western Blot
Assay type: cell-based, human
Experimental: 1×10^6 JIMT-1 cells were plated in 3mL of DMEM/FBS 90:10 (v/v) in 6-well plates and incubated overnight. Cells were treated with the compound 2384 of the invention with or without the proteasome inhibitor MG-132 (MedChemExpress, Cat HY-13259) for 2h. Cells were harvested, and protein were extracted using complete RIPA buffer (RIPA buffer, 1 mM DTT, 1M NaF, 100 mM sodium orthovanadate, phosphatase inhibitor buffer and protease inhibitors) for 1 hour on ice. Lysate were centrifuged 15min at 12 000g at 4°C. and proteins were mixed with 4x Laemmli Sample Buffer (Bio-Rad), heated at 95 °C for 5 mins and separated by SDS PAGE (PROTEAN TGX Stain-Free Gels, Bio-Rad). Proteins were then transferred onto PVDF membrane (iBlot®2 PVDF stacks, Invitrogen) using the iBlot2 device (Invitrogen) and blocked with TBS buffer (Intercept® Blocking Buffer, LI-COR Biosciences). Primary antibodies were incubated overnight at 4°C and secondary antibodies (IRDye Infrared Dyes from LI-COR Biosciences) 1 hour at room temperature. Used primary antibody were: anti-CycK (cat#A301-939A, Bethyl Laboratories, dil. 1:1000) and anti-β-actin (cat#A5441, Sigma-Aldrich, dil. 1:5000). Membranes were scanned using a c500 Imaging System (Azure Biosystems) and densitometric quantification were performed using imaged software. Protein levels were normalized against β-actin.

## N[C@H]1CC[C@H](Nc2nc(NCc3ccc(-c4ccccn4)cc3)n3ncc(Br)c3n2)CC1 [Compound 2384]
10nM, 2h treatment of JIMT-1 cells
  CycK degradation: complete CycK degradation
JIMT-1 cells, 1µM, 2h
  CycK protein content: decreased CycK protein content
JIMT-1 cells, 2h
  minimum effective dose for CycK degradation compared with CR8: approximately 10 times lower
JIMT-1 cells, combination with the proteasome inhibitor MG-132, 2h
  CycK protein content: restored the content in cycK protein
